Measured values reported in patent publication US12097210B2, “Concomitant administration of glucocorticoid receptor modulators and CYP3A inhibitors” (Corcept Therapeutics, Inc., priority 2017, dated 2024).

Experiments:
[1] = Example 2: PK of ketoconazole 400 mg single dose on Day 8 of mifepristone regimen; assay type: in vivo, human; conditions: single 400 mg ketoconazole dose on Day 8
Source text: (§1) Subjects were discharged on Day 11.
(§2) Subjects were discharged on Day 11. Subjects in both cohorts returned to study center on Day 13 for safety monitoring, collection of the 120-hour PK draw, and completion of the Termination Visit procedures, followed by discharge from the study. To the extent possible, any adverse events deemed study drug-related and that were ongoing at the time of discharge from the study were followed-up to resolution or until a determination was made that the unresolved event was stable.
(§3) DURATION OF TREATMENT: Up to a total of 28 days, including up to 2 weeks screening, dosing on Days 1-8, safety observation, and PK sample collection through Day 13.
(§4) Additionally, comparisons were made between the PK results of cohort 1 and 2. Pharmacokinetic parameters Cmax, T½ and total AUC were calculated for plasma concentrations of ketoconazole following the single dose on Day 8. Descriptive statistics (count, mean, median, standard deviation, minimum, maximum, and % coefficient of variation) were provided. Ketoconazole concentrations were listed and summarized. GM means of Cmax and total AUC were compared for the single dose in this study to the combined data of reported 400 mg single doses of ketoconazole of healthy subjects from the literature.

[2] = Example 3: effect of co-administration with mifepristone on ketoconazole PK; assay type: in vivo, human
Description: (§5) A single dose of ketoconazole was administered on Day −1.
(§6) The study was a two period study design.

CYP3A = conditions: 38 published studies, 411 subjects; concomitantly administered CYP3A inhibitor; cited from earlier work
[3] = Example 3: effect of ketoconazole 200 mg twice daily on PK of mifepristone 600 mg once daily and metabolites, with food; assay type: in vivo, human; conditions: for concentrations on Day 17 compared with Day 12: 600 mg mifepristone daily with 200 mg ketoconazole twice daily vs mifepristone alone; for Ratio % Test/Reference, AUC0-24 / Ratio % Test/Reference, Cmax: Test: Day 17, 600 mg mifepristone OD + 200 mg Ketoconazole BID, Reference: Day 12, 600 mg mifepristone OD, geometric mean ratio
Description: as §5, §6
Concentrations of RU 42633 and RU 42848 were similar on Day 17 and Day 12.

[4] = Example 3: cross-study comparison of exposure with historic study of 1200 mg mifepristone OD; assay type: in vivo, human; conditions: Test: Day 17, 600 mg mifepristone OD + 200 mg Ketoconazole BID; Reference: historic study Day 7, 1200 mg mifepristone OD alone; after 34% fat meal
clinical = conditions: male, human, in vivo
Description: This study was conducted in accordance with Good Clinical Practice under the guidance of an Institutional Review Board and in accordance with applicable local legal and regulatory requirements.
KORLYM® was supplied in 300 mg tablets for oral administration. Three or four tablets were administered once daily (OD) to provide either the 900 mg or 1200 mg per day dose.
Itraconazole was supplied • in 100 mg capsules for oral administration. Two capsules were administered once daily (OD) to provide the 200 mg per day dose.
All drug administrations were oral and were given after the morning meal.
The inclusion criteria required, among other criteria, that the subjects be healthy male subjects between the ages of 18 and 65, weigh more than 110 pounds, and have a body mass index (BMI) of 18 to 32 kg/m^2. The design included a Screening Period of up to 3 weeks (subjects were screened at a time between days −21 to −1 prior to the first treatment period), three 14-day treatment periods, and a Follow-Up (FU) Period of 14 days for safety observation.
Subjects meeting the inclusion criteria (n=22) were administered drug daily and blood samples were taken on the days indicated below during Periods 1-3 and on day 43 of the follow-up period.
Subjects presented at the Clinical Research Unit (CRU) after an 8-hour overnight fast, then predose PK samples were taken and other evaluations (predose electrocardiograms (ECGs), plasma cortisol and ACTH, serum chemistry tests) were performed. […] On the specific days indicated above, additional blood draws for determining 24-hour PK profiles were performed.
Pharmacokinetic (PK) parameters measured and computed included AUC (area under the concentration−time curve), AUC0-24 (AUC values from time 0 to 24 hours postdose), Cmax (maximum concentration), and Css (average steady-state concentration, calculated as AUC0-24/24).

[5] = Example 2: effect of a 400 mg single dose of ketoconazole on PK of an 8-day regimen of 300 mg or 600 mg OD mifepristone after moderate fat breakfast; assay type: in vivo, human; conditions: 300 or 600 mg OD mifepristone
Description: This was an open-label study in healthy male subjects. […] The 400 mg single dose of ketoconazole was given to all subjects on day 8.
METHODOLOGY: Twelve subjects were enrolled, six in Cohort 1 and 6 in Cohort 2.
as §1, §2
DIAGNOSIS AND MAIN […] FOR INCLUSION: Healthy male volunteers between the ages of 18 to 45 years of age with a body mass index (BMI) ranging between 19 and 32 kg/m2 and a weight of at least 60 kg (132 lbs) were enrolled. Subjects had no clinically significant abnormal findings on the physical examination, ECG, blood pressure, heart rate, medical history, or clinical laboratory results during screening. The QTc interval at screening was less than 450 msec.
as §3, §4

[6] = 400 mg ketoconazole (200 mg twice per day) with 600 mg mifepristone per day
[7] = Test: Day 17, 600 mg mifepristone OD + 200 mg Ketoconazole BID, Reference: Day −1, 200 mg Ketoconazole single dose
[8] = 600 mg mifepristone OD + 200 mg ketoconazole BID

SMILES | increase of plasma levels (AUC) of orally administered midazolam (CYP3A) | change in exposure on co-administration with ketoconazole [3, 8] | concentrations on Day 17 compared with Day 12 [3] | Ratio % Test/Reference, AUC0-24 [3] [%] | Ratio % Test/Reference, Cmax [3] [%] | Ratio % Test/Ref, AUC0-24 [4] [%] | Ratio % Test/Ref, Cmax [4] [%] | AUC(0-t) (clinical; 900 mg) [ng·h/mL] | Cmax (clinical; 900 mg) [ng/mL] | AUC(0-t) (clinical; 1200 mg) [ng·h/mL] | Cmax (clinical; 1200 mg) [ng/mL] | other results
CC(=O)N1CCN(c2ccc(OCC3COC(Cn4ccnc4)(c4ccc(Cl)cc4Cl)O3)cc2)CC1 (stereo not drawn) [Ketoconazole, 1-acetyl-4-[4-[[2-(2,4-dichlorophenyl)-2-[(1H-imidazol-1-yl)-methyl]-1,3-dioxolan-4-yl]methoxy]phenyl]piperazine] | more than 11 fold | – | – | – | – | – | – | – | – | – | – | ketoconazole half-life on either mifepristone regimen [1]: not appreciably different; increase in ketoconazole AUC with concomitant mifepristone [2, 6]: 253%; increase in ketoconazole Cmax with concomitant mifepristone [2, 6]: 365%; Ratio % Test/Reference, AUC [2, 7]: 365.36%; Ratio % Test/Reference, Cmax [2, 7]: 252.71%
CC#C[C@]1(O)CC[C@H]2[C@@H]3CCC4=CC(=O)CCC4=C3[C@@H](c3ccc(NC)cc3)C[C@@]21C [RU 42633, (8S,11R,13S,14S,17S)-17-hydroxy-13-methyl-11-[4-(methylamino)phenyl]-17-prop-1-ynyl-1,2,6,7,8,11,12,14,15,16-decahydrocyclopenta[a]phenanthren-3-one] | – | little change in exposure | similar | 102.33 | 105.73 | 91.34 | 96.31 | 40300 | 1970 | 45800 | 2160 | –
CN(C)c1ccc([C@H]2C[C@@]3(C)[C@@H](CC[C@@]3(O)C#CCO)[C@@H]3CCC4=CC(=O)CCC4=C32)cc1 [RU 42698, (8S,11R,13S,14S,17S)-11-[4-(dimethylamino)phenyl]-17-hydroxy-17-(3-hydroxyprop-1-ynyl)-13-methyl-1,2,6,7,8,11,12,14,15,16-decahydrocyclopenta[a]phenanthren-3-one] | – | – | higher | 166.86 | 169.13 | 118.18 | 116.55 | 15100 | 755 | 16900 | 853 | mean metabolite exposure compared with mifepristone [5]: lower; mean increase in exposure on co-administration with ketoconazole [3, 8]: approximately 70%; share of the total steady-state AUC0-24 of mifepristone, RU42633, RU42698, RU42848 ([3]; in the presence of ketoconazole): 13%; share of the total steady-state AUC0-24 of mifepristone, RU42633, RU42698, RU42848 ([3]; mifepristone alone): 9%
CC#C[C@]1(O)CC[C@H]2[C@@H]3CCC4=CC(=O)CCC4=C3[C@@H](c3ccc(N)cc3)C[C@@]21C [RU 42848, (8S,11R,13S,14S,17S)-11-(4-aminophenyl)-17-hydroxy-13-methyl-17-prop-1-ynyl-1,2,6,7,8,11,12,14,15,16-decahydrocyclopenta[a]phenanthren-3-one] | – | little change in exposure | similar | 94.88 | 95.48 | 81.43 | 82.45 | 33900 | 1630 | 36500 | 1770 | trough concentrations through the start of ketoconazole administration (Day 13) ([3]; FIG. 1, 600 mg mifepristone OD): increasing day-by-day
CC[C@H]1OC(=O)[C@H](C)[C@@H](O[C@H]2C[C@@](C)(OC)[C@@H](O)[C@H](C)O2)[C@H](C)[C@@H](O[C@@H]2O[C@H](C)C[C@H](N(C)C)[C@H]2O)[C@](C)(OC)C[C@@H](C)C(=O)[C@H](C)[C@@H](O)[C@]1(C)O [clarithromycin] | more than 6 fold | – | – | – | – | – | – | – | – | – | – | –
CCC(C)n1ncn(-c2ccc(N3CCN(c4ccc(OCC5COC(Cn6cncn6)(c6ccc(Cl)cc6Cl)O5)cc4)CC3)cc2)c1=O (stereo not drawn) [itraconazole] | more than 7 fold | – | – | – | – | – | – | – | – | – | – | –
